Entries after “also recorded” stand apart in the source; their conditions may differ. Read-outs that look alike come from different tables or passages of the source.
Tests used:
ERK1/2 [1] = assay: IL-12(p70) production by stimulated DCs with ERK1/2 inhibitor; assay type: cell-based, human; conditions: inhibitor 1 h before stimulus
[2] = system: naïve, allogeneic CD4+ CD45RA+ CD45RO− T cells; assay: DC-T cell cultures: T-cell proliferation and Th1/Th2 cytokines; assay type: cell-based, human; conditions: for IFNγ in DC-T cell culture: DCs stimulated 48 h, then 5 days with naive CD4+ T cells
c-Fos = assay: Flow cytometric evaluation of c-Fos expression in DCs; assay type: cell-based, human; conditions: for phosphorylated c-Fos expression in DCs: flow cytometry
[3] = system: splenic CD11c+ CD11b+ and CD11c+ CD11b− DC subsets; assay: Activation of splenic DC subsets in vivo
ERK1/2 [4] = assay: MAP-kinase signaling in DCs: ERK1/2 phosphorylation; assay type: cell-based, human; conditions: 0.25, 1 and 4 h stimulation
JNK1/2 = assay: MAP-kinase signaling in DCs: JNK1/2 phosphorylation (western blot); assay type: cell-based, human
p38 MAP kinase = assay: MAP-kinase signaling in DCs: p38 phosphorylation; assay type: cell-based, human
[5] = system: human monocyte-derived DCs; assay: Cytokine production by DCs (ELISA); assay type: cell-based
[6] = system: OVA-specific CD4+ T cells; assay: Antigen-specific CD4+ T cell responses in vivo (OT-2 adoptive transfer); design: species or system mice
[7] = system: OVA-specific CD8+ T cells; assay: Antigen-specific CD8+ T cell responses in vivo (OT-1 adoptive transfer); design: species or system mice; conditions: for clonal expansion of OVA-specific CD8+ T cells: i.p. with OVA257-264 50 μg, E. coli LPS 25 μg or Pam-3-cys 50 μg, day 4
[8] = system: human monocyte-derived DCs; assay: DC phenotype/maturation by flow cytometry (CD80, CD86, CD83); assay type: cell-based; conditions: immature DCs cultured 48 h with stimulus
Description: Isolation and culture of human monocyte-derived DCs: CD14^+ monocytes were enriched from peripheral blood mononuclear cells (PBMCs), using an enrichment step, and cultured in six well plates (1×10^6 cells/well) for six days with recombinant Human GM-CSF at 100 ng/ml (PeproTech, NJ) and recombinant Human IL-4 at 20 ng/ml (PeproTech, NJ). At day six, the cultures consisted uniformly of CD1a^+CD14^−, HLA-DR^+ CD11c^+ cells, which were negative for CD83, the human DC maturation marker, and expressed intermediate levels of such costimulatory molecules as CD86 (Rissoan et al., Science 283:1183-1186, 1999). On day six, the immature DCs were pulsed with E. coli LPS ([…]), flagellin ([…]), Pam3cys ([…]), or SEA ([…]) for 48 hours.
DC phenotype: The phenotype of DCs was determined by flow cytometry using a Facscalibur (BD Pharmingen, CA). Briefly, gated CD1a^+CD14^−, CD11c^+ HLA-DR^+ DCs were analyzed for the expression of CD80, CD86, CD83 and CD40. All antibodies, including the PE-labeled isotype controls were purchased from BD Pharmingen (La Jolla, Calif.).
Isolation and culture of human monocyte-derived DCs: CD14^+ monocytes were enriched from peripheral blood mononuclear cells, and cultured for 6 days with recombinant human GM-CSF at 100 ng/ml (PeproTech, NJ) plus recombinant human IL-4, at 20 ng/ml (PeproTech). At day 6, the cultures consisted uniformly of CD1a^+ CD14^−, HLA-DR^+ CD11c^+ cells, which were negative for CD83. These immature DCs were pulsed with Ec.LPS (1 μg/ml), flagellin (0.5 μg/ml), Pam3cys (20 μg/ml), or SEA (100 μg/ml) for 48 h.
DC phenotype: This was determined by flow cytometry using a Facscalibur (BD Pharmingen, CA). Briefly, gated CD1a^+CD14^−, C11c+ HLA-DR^+DCs were analyzed for the expression of CD80, CD86, CD83 and CD40 (BD Pharmingen, La Jolla, Calif.).

[9] = very high doses, which induced high levels of CD83
[10] = mice injected with OVA323-339 + stimulus
[11] = mice injected with OVA257-264 + stimulus

Compound: N#CC(=C(/N)Sc1ccccc1N)/C(C#N)=C(\N)Sc1ccccc1N [U0126]
- IL-12(p70) production induced by Pam3cys when ERK1/2 is blocked (ERK1/2 [1]): significantly enhances IL-12(p70) production
- IL-12(p70) production induced by SEA when ERK1/2 is blocked (ERK1/2 [1]): did not result in consistent increases in IL-12(p70)

Compound: S-[2,3-bis(palmitoyloxy)-(2-RS)-propyl]-N-palmitoyl-R-Cys-S-Ser-Lys4-OH [Pam3cys]
- IL-5 in DC-T cell culture ([2]; Example 1, FIG. 2B): high levels
- IL-13 in DC-T cell culture ([2]; Example 1, FIG. 2B): 1458 pg/mL
- IFNγ in DC-T cell culture ([2]; Example 1, FIG. 2B): high levels
- IL-5 in DC-T cell culture ([2]; Example 2, FIG. 8b): 600 pg/mL
- IL-13 in DC-T cell culture ([2]; Example 2, FIG. 8b): 600 pg/mL
- IFNγ in DC-T cell culture ([2]; Example 2, FIG. 8b): approximately 2000 pg/ml
- Th1 responses induced by DCs stimulated at very high doses [2, 9]: did not induce Th1 responses
- c-Fos expression in DCs at 4 hours (c-Fos; 4 h of stimulation): maintained, even at 4 hours; also recorded: maintained even at 4 hrs
- phosphorylated c-Fos expression in DCs (c-Fos): expressed at significant levels
- total c-Fos expression (mean fluorescence intensity, fraction of cells) in DCs (c-Fos; peak, 2 hrs of stimulation, versus E. coli LPS or flagellin): much greater
- induction of CD86 and I-Ab on splenic DC subsets ([3]; TLR-2 deficient (TLR2−/−) mice): severely impaired; also recorded: severely reduced
- CD86 and MHC class II (I-Ab) expression on splenic DC subsets ([3]; wild type mice, E. coli LPS 25 μg, Pam-3-cys 50 μg, 6 hours): equivalent up-regulation of CD86 and MHC class II; also recorded: upregulated CD86 and I-Ab expression
- ERK1/2 phosphorylation in DCs (ERK1/2 [4]): much higher magnitude and duration of phosphorylation (which was sustained even at 4 hours); also recorded: much higher magnitude and duration of phosphorylation, (which was sustained even at 4 h)
- JNK1 phosphorylation in DCs (JNK1/2; Example 2, FIG. 9c, western blot): very weak
- phosphorylation of p38 MAP kinase in DCs (p38 MAP kinase; 0.25, 1 and 4 h stimulation, phosphorylated to total ratio, ELISA): rapid burst of p38 phosphorylation at 15 minutes, which rapidly declined to near baseline levels by 1 hour
- phosphorylation of p38 MAP kinase in DCs (p38 MAP kinase; 0.25, 1 and 4 h stimulation, phosphorylated to total ratio, ELISA, listed as Pam-3-cys): enhanced phosphorylation of p38 MAP kinase
- IL-12 induced in DCs at 10 hrs ([5]; 10 hrs, no inhibitor): did not induce any IL-12
- IL-12 induced in DCs at 24 hrs ([5]; 24 hrs, no inhibitor): 20 to 100 pg/mL
- IL-10 secreted by DCs ([5]; 48 h with stimulus, ELISA): induced
- TNF-α secreted by DCs ([5]; 48 h with stimulus, ELISA): much weaker levels
- IL-12(p70) secreted by DCs ([5]; 48 h with stimulus, doses giving equivalent IL-6, ELISA): little or no IL-12(p70)
- IL-12(p70) secreted by DCs at very high doses of stimulus [5, 9]: did not induce IL-12(p70)
- bias of the CD4+ Th response in vivo ([6]; OT-2): preferential bias towards the Th2 pathway
- ratio IFNγ: IL-4 ([6]; OT-2, FIG. 12D): 40
- ratio IFNγ: IL-5 ([6]; OT-2, FIG. 12D): 18
- ratio IFNγ: IL-13 ([6]; OT-2, FIG. 12D): 1.2
- IL-4 and IL-5 in restimulated spleen cell culture ([6]; OT-2, relative to OVA323-339+E. coli LPS, p<0.01): relatively higher levels of IL-4 and IL-5
- clonal expansion of OVA-specific CD4+ Thy-1.2+ T cells in spleen ([6]; i.p. with OVA323-339 50 μg, E. coli LPS 25 μg or Pam-3-cys 50 μg, day 4): significantly enhanced the clonal expansion; also recorded: induced clonal expansion
- IFNγ in restimulated spleen cell culture [6, 10]: much lower levels of IFNγ
- IL-5 in restimulated spleen cell culture [6, 10]: ~70 pg/mL
- IL-4 in restimulated spleen cell culture ([6]; mice injected with OVA323-339 + stimulus, ELISA sensitivity 8 pg/ml): ~30 pg/mL
- in vitro proliferative capacity of OVA-specific CD4+ T cells ([6]; spleen cells restimulated with OVA, versus OVA323-339 alone): greatly enhanced responses
- bias of the CD8+ Tc response in vivo ([7]; OT-1): shift the balance towards the Tc2 pathway
- ratio IFNγ: IL-4 ([7]; OT-1, FIG. 13D): 28
- ratio IFNγ: IL-5 ([7]; OT-1, FIG. 13D): 21
- ratio IFNγ: IL-13 ([7]; OT-1, FIG. 13D): 4
- clonal expansion of OVA-specific CD8+ T cells [7]: induced clonal expansion
- clonal expansion of OVA-specific CD8+ T cells ([7]; listed as Pam-cys): enhanced the clonal expansion
- IFNγ in restimulated spleen cell culture [7, 11]: lower levels of IFNγ
- IL-4, IL-5 and IL-13 in restimulated spleen cell culture [7, 11]: relatively higher levels of IL-4, IL-5 and IL-13
- in vitro proliferative capacity of OVA-specific CD8+ T cells ([7]; spleen cells restimulated with OVA257-264, versus OVA257-264 alone): greatly enhanced responses
- CD80 expression on DCs [8]: also weaker
- CD86 expression on DCs [8]: much lower levels of CD86
- DC maturation (maturation marker CD83) [8]: weaker than that induced by E. coli LPS or flagellin; also recorded: weaker than that induced by Ec.LPS or flagellin

Compound: flagellin
- type of Th response induced by stimulated DCs [2]: typical Th1 profile
- phosphorylated c-Fos expression in DCs (c-Fos): not expressed
- JNK1 phosphorylation in DCs (JNK1/2): high levels
- JNK 2 phosphorylation in DCs (JNK1/2): higher levels of JNK 2
- phosphorylation of JNK1 and 2 in DCs (JNK1/2): higher levels of JNK1 and 2
- phosphorylation of p38 MAP kinase in DCs (p38 MAP kinase): enhanced phosphorylation of p38 MAP kinase, which peaked at 15 minutes, and was sustained at levels well above baseline, even at 4 hours
- ratio of p38:ERK phosphorylation in DCs (p38 MAP kinase): much higher ratios of p38:ERK1/2
- IL-10 secreted by DCs [5]: induced
- IL-12(p70) secreted by DCs [5]: approximately 1000 pg/ml
- TNF-α secreted by DCs [5]: strongly induced

— US20040259790A1, “Methods for identifying and administering agents that bias the immune response via dendritic cells” (priority 2003, published 2004)
